US5041636A, “Urea derivatives” (Wako Pure Chemical Industries, Ltd., priority 1986, dated 1991)
Counter-ions that a name gives are not always drawn.

Assays:
Type in all cases: physicochemical
[1] = Stability after color development (Table 1); parameters: key: A: stable; B: slightly unstable
Experimental: (§1) Various properties such as the stability of leuco dye solution, the stability after color developed, the maximum absorption wavelength (λmax), the sensitivity (ε) and the solubility in water of typical 14 examples of the urea derivatives of the formula (I) are shown in Table 1.
(§2) In Table 1, "A" means stable and "B" means slightly unstable in the evaluation of the stability of the leuco dye solution and the stability after color development. The solubility in water is evaluated as .circleincircle. highly soluble, soluble, and X hardly soluble.

[2] = Maximum absorption wavelength (λmax) and sensitivity (ε) (Table 1); details: at color development
Excerpt: as §1

[3] = Stability of leuco dye solution (Table 1); parameters: key: A: stable; B: slightly unstable
Experimental: as §1, §2

[4] = Solubility in water (Table 1)
Experimental: as §1, §2

| SMILES | Stability after color developed [1] | λmax [2] [nm] | Stability of leuco dye soln. [3] | Solubility in water [4] |
| --- | --- | --- | --- | --- |
| CCCN(CCC)c1ccc2c(c1)Oc1cc(N(CCC)CCC)ccc1N2C(=O)NCC(=O)O [(11)] | B | 666 | A | .circleincircle |
| CCCN(CCC)c1ccc2c(c1)Sc1cc(N(CCC)CCC)ccc1N2C(=O)NCC(=O)O [(12)] | B | 666 | A | .circleincircle |
| CN(C)c1ccc2c(c1)Oc1cc(N(C)CC(=O)O)ccc1N2C(=O)NCC(=O)O [(13)] | B | 666 | B | .circleincircle |
| CN(C)c1ccc2c(c1)Sc1cc(N(C)CC(=O)O)ccc1N2C(=O)NCC(=O)O [(14)] | B | 666 | B | .circleincircle |
| CNC(=O)N(c1ccc(N(C)C)cc1)c1ccc(N(C)C)cc1 [(15), reference compound] | B | 730 | A | – |
| CCCCNC(=O)N(c1ccc(N(C)C)cc1)c1ccc(N(C)C)cc1 [(16), reference compound] | B | 730 | A | – |
| CNC(=O)N1c2ccc(N(C)C)cc2Sc2cc(N(C)C)ccc21 [(17), reference compound] | B | 666 | B | – |
| CN(C)c1ccc2c(c1)Sc1cc(N(C)C)ccc1N2C(=O)NCC(=O)O [Compound No. (9), sodium salt of 10-(carboxymethylaminocarbonyl)-3,7-bis(dimethylamino)phenothiazine] | B | 666 | B | .circleincircle |
| CN(C)c1ccc2c(c1)Oc1cc(N(C)C)ccc1N2C(=O)NCC(=O)O [Compound No. (10), sodium salt of 10-(carboxymethylaminocarbonyl)-3,7-bis(dimethylamino)phenoxazine] | B | 666 | B | .circleincircle |

Further lines, results first:

| Stability after color developed [1] | λmax [2] [nm] | Stability of leuco dye soln. [3] | Solubility in water [4] | SMILES |
| --- | --- | --- | --- | --- |
| B | 730 | A | – | Cc1ccc(S(=O)(=O)NC(=O)N(c2ccc(N(C)CO)cc2)c2ccc(N3CCCCC3)cc2)cc1 [(5)] |
| B | 730 | A | – | CN(C)c1ccc(N(C(=O)NCCC2CCOCC2)c2ccc(N(C)CO)cc2)cc1 [(6)] |
| B | 730 | A | .circleincircle | CN(C)c1ccc(N(C(=O)NCC(=O)O)c2ccc(N(C)C)cc2)cc1 [Compound No. (1), sodium salt of N,N-bis(4-dimethylaminophenyl)-N'-carboxymethylurea] |
| B | 730 | A | .circleincircle | CN(C)c1ccc(N(C(=O)Nc2ccc(S(=O)(=O)O)cc2)c2ccc(N(C)C)cc2)cc1 [Compound No. (2), sodium salt of N, N-bis(4-dimethylaminophenyl)-N'-(4-sulfophenyl)urea] |
| A | 740 | A | – | CCN(CC)c1ccc(N(C(=O)NS(=O)(=O)c2ccc(C)cc2)c2ccc(N(C)C)cc2C)c(C)c1 [Compound No. (7), N-(4-dimethylamino-2-methylphenyl)-N-(4'-diethylamino-2'-methylphenyl)-N'-(4-methylphenylsulfonyl)urea] |
